According to patent publication US5326902A, “Oxyalkyne compounds, pharmaceutical compositions containing them and processes for preparing such compounds and compositions” (Gruenenthal GmbH, priority 1992, dated 1994):

What was measured:
[1] = system: bronchoconstriction elicited by ovalbumin; experiment: Allergen-induced bronchoconstriction in guinea pigs (Konzett-Rossler); format: in vivo, guinea pig; conditions: Cavia porcellus, 1 h; oral, 60 minutes before ovalbumin (0.2 mg/kg intravenous); passively sensitized guinea pigs; read-out: ED40-Value (40% average inhibition of the bronchoconstriction elicited by ovalbumin)
Protocol: The anti-asthmatic effect of compounds according to the invention was tested in anesthetized and ventilated guinea pigs. To induce an asthmatic reaction, the animals were passively sensitized by a single intraperitoneal injection of anti-ovalbumin serum. After 48 hours, the asthmatic reaction was elicited by intravenous challenge with 0.2 mg/kg of ovalbumin. The immediately resulting bronchoconstriction was measured as an increase in intratracheal pressure. Effects caused by histamine, serotonin and sympathic counterreaction were eliminated by intravenous pretreatment with 2.15 mg/kg of mepyramine, 46.4 μg/kg of propranolol, 4.64 mg/kg of atropine and 1 mg/kg of methysergide, all administered 5 minutes before challenge. Compounds according to the invention were administered orally 60 minutes before the administration of ovalbumin. The following […] for the inhibition of the bronchoconstriction elicited by ovalbumin, i.e. the effective doses causing a 40% average inhibition of the bronchoconstriction, were determined: […]

5-lipoxygenase [2] = molecular target: T1, 5-lipoxygenase (Rattus norvegicus, UniProt P12527); experiment: Inhibition of 5-lipoxygenase in RBL-1-cells; format: cell-based; conditions: 20 μM [14C]-arachidonic acid, 20 μM calcium ionophore A 23 187, 10 minutes
T1 construct: endogenous in cells; host or cells: RBL-1 cells (rat basophilic leukemia)
T1 sequence (P12527 1-673): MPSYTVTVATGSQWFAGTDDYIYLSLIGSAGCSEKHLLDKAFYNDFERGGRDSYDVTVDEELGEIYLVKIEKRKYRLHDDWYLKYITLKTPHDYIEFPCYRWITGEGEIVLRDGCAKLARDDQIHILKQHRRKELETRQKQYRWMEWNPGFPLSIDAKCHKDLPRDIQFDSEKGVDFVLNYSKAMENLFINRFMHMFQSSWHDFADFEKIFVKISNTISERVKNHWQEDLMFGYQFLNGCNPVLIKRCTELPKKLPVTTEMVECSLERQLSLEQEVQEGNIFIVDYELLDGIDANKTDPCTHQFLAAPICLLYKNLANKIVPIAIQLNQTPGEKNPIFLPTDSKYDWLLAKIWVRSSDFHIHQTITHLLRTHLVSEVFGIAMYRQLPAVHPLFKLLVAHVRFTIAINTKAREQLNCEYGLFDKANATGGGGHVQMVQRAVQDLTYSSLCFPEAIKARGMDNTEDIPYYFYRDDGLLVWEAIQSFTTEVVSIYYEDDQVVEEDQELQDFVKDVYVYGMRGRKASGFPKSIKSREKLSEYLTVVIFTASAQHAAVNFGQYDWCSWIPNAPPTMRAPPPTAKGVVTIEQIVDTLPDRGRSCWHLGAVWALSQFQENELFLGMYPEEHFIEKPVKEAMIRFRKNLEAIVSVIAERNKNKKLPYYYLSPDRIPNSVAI
Protocol: To determine the inhibition of 5-lipoxygenase, rat basophilic leukemia cells (RBL-1-cells) were cultured in vitro, harvested by centrifugation, washed with 50 mM potassium phosphate buffer of pH 7.4, and then suspended in this buffer at 1×10^7 cells/ml. Indomethacin (10 μM) and calcium chloride (2 mM) were added to 1 ml portions of this suspension, and then the mixture was incubated either in the presence of a compound according to the invention in a concentration range of from 0,1 μM to 100 μM or in the presence of a solvent (ethanol and/or dimethyl sulfoxide) for 3 minutes and thereafter with 20 μM of [^14 C]-arachidonic acid and 20 μM of calcium ionophore A 23 187 for 10 minutes. The reaction was stopped by adding 20 μl of glacial acetic acid, and then the mixture was extracted with ethyl acetate to isolate the metabolites of arachidonic acid formed by the enzymatic action of 5-lipoxygenase. These were separated by thin layer chromatography using a solvent mixture known to be suitable for lipoxygenase products [c.f. Jakschik et al., Biochem. Biophys. Res. Commun. 102, 624 (1981)].
The distribution of radioactivity among the different metabolites of arachidonic acid was measured using a TLC Linear Analyzer. By correlating the percentage amounts of the products formed under the action of 5-lipoxygenase (5HETE, isomers of LTB4) in the absence as well as in the presence of different concentrations of compounds according to the invention, the IC50 -values, i.e. the concentrations which cause a 50% inhibition of 5-lipoxygenase, were determined graphically from semilogarithmic plots.

5-lipoxygenase [3] = molecular target: T1, 5-lipoxygenase; experiment: Inhibition of Cell-free 5-lipoxygenase from RBL-1-cells (polarographic, 10,000 × g supernatant); format: biochemical; conditions: 10,000 × g supernatant of homogenized RBL-1-cells; arachidonic acid 75 μM; 35° C.; calculated IC50
Protocol: Cell-free 5-lipoxygenase was polarographically measured from 10,000 × g supernatant of homogenized rat basophilic leucemia cells (M. Haurand & L. Flohe in Biol. Chem. Hoppe-Seyler 369, 133 to 142 (1988)). After preincubation of the 10,000 × g supernatant with arachidonic acid (75 μM), ATP (adenosine triphosphate; 4 mM), reduced glutathione (4 mM), and either a compound according to the invention (0.1 to 100 μM) or a solvent (ethanol and/or dimethyl sulfoxide) at 35° C. for 5 minutes, the lipoxygenase reaction was initiated by addition of calcium chloride (3 mM) and simultaneously recorded.
The activity of 5-lipoxygenase was determined from the difference in the pO2 -decrease before and after addition of calcium chloride. The evaluation included the initial rate of the reaction after the lag-phase as well as the duration of the lag-phase. In the concentration range of from 3 to 50 μM, the test substances induced lag-phases between 20 and 60 seconds.

5-lipoxygenase [4] = experiment: Inhibition of 5-lipoxygenase in Rat Blood After Oral Administration (ex vivo iLTB4-formation); conditions: 21.5 mg/kg oral, male Wistar rats, one hour after administration
Protocol: The bioavailability of the compounds of formula I as 5-lipoxygenase inhibitors was characterized by means of an ex vivo biochemical assay method described by Tateson et al. in Brit. J. Pharmacol. 94, 528 (1988): A compound of formula I was orally administered to male rats (Wistar strain) at a dose of 21.5 mg/kg. After lethal CO2 -narcosis one hour after administration, the rats were bled by heart puncture with added heparin as an anticoagulant. Aliquots of the whole blood were incubated at 37° C. for 30 minutes in a water bath with calcium ionophore A 23 187 at an end concentration of 15 μg/ml. At the end of the incubation, the samples were centrifuged, and the concentration of the immunoreactive LTB4 (iLTB4) in aliquots of cell-free plasma was determined by radioimmunoassay (3H-LTB4 -RIA, Amersham). To enable calculation of the inhibition in percent of ex vivo iLTB4 -formation in whole rat blood treated with a compound according to the invention, rats orally treated with an appropriate vehicle solution were included in all experiments, and aliquots of their blood were run in parallel and were processed in the same way as described. The average iLTB4 -content of the plasma of the vehicletreated rats served as a 100% value. The activity in percent of the ex vivo iLTB4 -formation after oral administration of a compound according to the invention was calculated by dividing the average value of the iLTB4 -contents in ng iLTB4 /ml of the group treated with a compound according to the invention by the average value of the iLTB4 -contents in ng iLTB4 /ml of the vehicle treated group and subsequent multiplication by a factor of 100. The respective inhibition in percent was calculated by subtracting the activity in percent from 100.

12-lipoxygenase = molecular target: T2, 12-lipoxygenase (Homo sapiens, UniProt P18054); experiment: Inhibition of 12-lipoxygenase in human blood; format: cell-based; parameters: 3 ml aliquots of human whole blood treated with heparin; from tissue; host or cells: human whole blood (heparinized); conditions: human whole blood; calcium ionophore A 23 187 15 μg/ml; 37° C., 30 minutes; 12-HETE by HPLC
T2 sequence (P18054 1-663): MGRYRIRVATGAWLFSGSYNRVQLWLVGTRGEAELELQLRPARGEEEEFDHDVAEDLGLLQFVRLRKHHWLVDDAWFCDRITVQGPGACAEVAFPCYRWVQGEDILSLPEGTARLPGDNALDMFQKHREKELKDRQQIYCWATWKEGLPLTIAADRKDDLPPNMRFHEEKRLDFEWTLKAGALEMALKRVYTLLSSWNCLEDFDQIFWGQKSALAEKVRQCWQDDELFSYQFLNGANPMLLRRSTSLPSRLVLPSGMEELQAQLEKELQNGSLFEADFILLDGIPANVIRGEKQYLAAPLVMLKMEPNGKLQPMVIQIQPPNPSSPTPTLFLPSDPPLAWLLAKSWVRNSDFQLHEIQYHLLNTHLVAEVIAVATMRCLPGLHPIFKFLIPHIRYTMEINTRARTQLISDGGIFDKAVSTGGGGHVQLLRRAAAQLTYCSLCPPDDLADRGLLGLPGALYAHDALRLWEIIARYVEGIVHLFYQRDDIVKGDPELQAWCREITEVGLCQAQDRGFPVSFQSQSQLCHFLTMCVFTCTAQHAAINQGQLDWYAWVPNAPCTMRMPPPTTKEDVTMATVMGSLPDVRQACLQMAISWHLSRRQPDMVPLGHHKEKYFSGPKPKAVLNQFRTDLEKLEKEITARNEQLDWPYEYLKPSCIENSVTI
Protocol: 3 ml aliquots of human whole blood treated with heparin were incubated either with a compound according to the invention or with dimethyl sulfoxide at 37° C. for 5 minutes. Then 12-lipoxygenase was activated by addition of calcium ionophore A 23 187 (15 μg/ml blood). After incubation at 37° C. for 30 minutes and centrifugation, cell-free plasma was obtained. Plasma protein was precipitated by addition of 2 ml of ethanol per ml of plasma and then separated by centrifugation. After adjusting the ethanol content in the supernatant with water to 10% by volume, the 12-lipoxygenase product 12-HETE was enriched by solid phase extraction using an octadecyl silica column. The methanolic eluate was evaporated to dryness, diluted in 40% by volume of methanol, and the 12-HETE-content was determined by HPLC. The IC50 -values of the compounds of the invention prepared according to Examples 1, 8 and 16 were 2, 4 and 3 μmolar, respectively.

IC50 (5-lipoxygenase [2]) [µM]	IC50 (5-lipoxygenase [3]) [µM]	IC50 (12-lipoxygenase) [µM]	SMILES	ED40 [1] [mg/kg]	Inhibition [%] of ex vivo iLTB4-formation (5-lipoxygenase [4]) [%]
3	3		NC(=O)N(O)Cc1ccc(C(O)C#Cc2ccc(F)cc2)cc1 (racemic) [Example 25, N-Hydroxy-N-[4-[1-hydroxy-3-(4-fluorophenyl)prop-2-yn-1-yl]benzyl]urea]	10	
7	8	4	NC(=O)N(O)Cc1ccc(C(O)C#Cc2ccccc2)cc1 (stereo not shown) [Example 8, N-Hydroxy-N-[4-[1-hydroxy-3-phenyl-prop-2-yn-1-yl]benzyl]urea]		65
3	6	3	CC(=O)N(O)Cc1ccc(C(O)C#Cc2cccs2)cc1 (stereo not shown) [Example 16, N-Hydroxy-N-[4-[1-hydroxy-3-(2-thienyl)prop-2-yn-1-yl]benzyl]acetamide]		
